In ChEMBL document CHEMBL4000244, “Probing A-form DNA: A fluorescent aminosugar probe and dual recognition by anthraquinone-neomycin conjugates” (Bioorg Med Chem, 2017):

How the values were obtained:
[1] = Binding affinity to 5'-GGCCCCCG-3' DNA hairpin assessed as change in fluorescence intensity at 1 uM after 45 mins by fluorescence quenching analysis relative to control
[2] = Binding affinity to 5'-GGGGCGGG-3' DNA hairpin assessed as change in fluorescence intensity at 1 uM after 45 mins by fluorescence quenching analysis relative to control
[3] = Binding affinity to 5'-CGCCGGCG-3' DNA hairpin assessed as change in fluorescence intensity at 1 uM after 45 mins by fluorescence quenching analysis relative to control
[4] = Binding affinity to 5'-CCGGCCGG-3' DNA hairpin assessed as change in fluorescence intensity at 1 uM after 45 mins by fluorescence quenching analysis relative to control
[5] = Binding affinity to 5'-CGCCGGGG-3' DNA hairpin assessed as change in fluorescence intensity at 1 uM after 45 mins by fluorescence quenching analysis relative to control
[6] = Binding affinity to 5'-CCGGGCCG-3' DNA hairpin assessed as change in fluorescence intensity at 1 uM after 45 mins by fluorescence quenching analysis relative to control
[7] = Binding affinity to 5'-CCGCCGCC-3' DNA hairpin assessed as change in fluorescence intensity at 1 uM after 45 mins by fluorescence quenching analysis relative to control
[8] = Binding affinity to 5'-CCCGGGCC-3' DNA hairpin assessed as change in fluorescence intensity at 1 uM after 45 mins by fluorescence quenching analysis relative to control
[9] = Binding affinity to 5'-GCGCCGCG-3' DNA hairpin assessed as change in fluorescence intensity at 1 uM after 45 mins by fluorescence quenching analysis relative to control
[10] = Binding affinity to d(G4C4)2 DNA major groove assessed as change in electrostatic potential at 10 uM at pH 4.65 to 9.78 by UV-Visible spectrophotometric method
[11] = Binding affinity to 5'-GCCGGGGC-3' DNA hairpin assessed as change in fluorescence intensity at 1 uM after 45 mins by fluorescence quenching analysis relative to control
[12] = Binding affinity to 5'-CGGCCCCG-3' DNA hairpin assessed as change in fluorescence intensity at 1 uM after 45 mins by fluorescence quenching analysis relative to control
[13] = Binding affinity to 5'-CCCGCGCC-3' DNA hairpin assessed as change in fluorescence intensity at 1 uM after 45 mins by fluorescence quenching analysis relative to control
[14] = Binding affinity to 5'-GGGGGGCC-3' DNA hairpin assessed as change in fluorescence intensity at 1 uM after 45 mins by fluorescence quenching analysis relative to control
[15] = Binding affinity to 5'-GGCGCCCG-3' DNA hairpin assessed as change in fluorescence intensity at 1 uM after 45 mins by fluorescence quenching analysis relative to control
[16] = Binding affinity to 5'-CCGCGGCC-3' DNA hairpin assessed as change in fluorescence intensity at 1 uM after 45 mins by fluorescence quenching analysis relative to control
[17] = Binding affinity to 5'-GGCCCCGG-3' DNA hairpin assessed as change in fluorescence intensity at 1 uM after 45 mins by fluorescence quenching analysis relative to control
[18] = Binding affinity to 5'-GGGGCCGC-3' DNA hairpin assessed as change in fluorescence intensity at 1 uM after 45 mins by fluorescence quenching analysis relative to control
[19] = Binding affinity to 5'-CGCGCCGC-3' DNA hairpin assessed as change in fluorescence intensity at 1 uM after 45 mins by fluorescence quenching analysis relative to control
[20] = Binding affinity to 5'-CGGCCGGC-3' DNA hairpin assessed as change in fluorescence intensity at 1 uM after 45 mins by fluorescence quenching analysis relative to control
[21] = Binding affinity to 5'-CGGGCGGG-3' DNA hairpin assessed as change in fluorescence intensity at 1 uM after 45 mins by fluorescence quenching analysis relative to control
[22] = Binding affinity to 5'-GCGCCGGG-3' DNA hairpin assessed as change in fluorescence intensity at 1 uM after 45 mins by fluorescence quenching analysis relative to control
[23] = Binding affinity to 5'-CGCGGCCC-3' DNA hairpin assessed as change in fluorescence intensity at 1 uM after 45 mins by fluorescence quenching analysis relative to control
[24] = Binding affinity to 5'-CGGGGCGG-3' DNA hairpin assessed as change in fluorescence intensity at 1 uM after 45 mins by fluorescence quenching analysis relative to control
[25] = Binding affinity to 5'-GGGGCCGG-3' DNA hairpin assessed as change in fluorescence intensity at 1 uM after 45 mins by fluorescence quenching analysis relative to control
[26] = Binding affinity to 5'-CCGGGGGG-3' DNA hairpin assessed as change in fluorescence intensity at 1 uM after 45 mins by fluorescence quenching analysis relative to control
[27] = Binding affinity to 5'-GGCCGGGG-3' DNA hairpin assessed as change in fluorescence intensity at 1 uM after 45 mins by fluorescence quenching analysis relative to control
[28] = Binding affinity to 5'-GCCCCCGG-3' DNA hairpin assessed as change in fluorescence intensity at 1 uM after 45 mins by fluorescence quenching analysis relative to control
[29] = Binding affinity to 5'-GGGGCCCC-3' DNA hairpin assessed as change in fluorescence intensity at 1 uM after 45 mins by fluorescence quenching analysis relative to control
[30] = Binding affinity to 5'-CCCCCCGC-3' DNA hairpin assessed as change in fluorescence intensity at 1 uM after 45 mins by fluorescence quenching analysis relative to control
[31] = Binding affinity to 5'-CGGGGCGC-3' DNA hairpin assessed as change in fluorescence intensity at 1 uM after 45 mins by fluorescence quenching analysis relative to control
[32] = Binding affinity to 5'-CGGGGGCC-3' DNA hairpin assessed as change in fluorescence intensity at 1 uM after 45 mins by fluorescence quenching analysis relative to control
[33] = Binding affinity to 5'-GCCCGGGG-3' DNA hairpin assessed as change in fluorescence intensity at 1 uM after 45 mins by fluorescence quenching analysis relative to control
[34] = Binding affinity to 5'-CGCGGGGG-3' DNA hairpin assessed as change in fluorescence intensity at 1 uM after 45 mins by fluorescence quenching analysis relative to control
[35] = Binding affinity to 5'-CCGCCGGC-3' DNA hairpin assessed as change in fluorescence intensity at 1 uM after 45 mins by fluorescence quenching analysis relative to control
[36] = Binding affinity to 5'-GGGGCGCG-3' DNA hairpin assessed as change in fluorescence intensity at 1 uM after 45 mins by fluorescence quenching analysis relative to control

- Activity [1]: 16%
- Activity [2]: 43.6%
- Activity [3]: 50.8%
- Activity [4]: 49.1%
- Activity [5]: 47.3%
- Activity [6]: 40.2%
- Activity [7]: 52.2%
- Activity [8]: 40.2%
- Activity [9]: 46.9%
- Activity [10]: -1.01 kT/e
- Activity [11]: 43.2%
- Activity [12]: 33.2%
- Activity [13]: 63.4%
- Activity [14]: 32.2%
- Activity [15]: 43.7%
- Activity [16]: 50.6%
- Activity [17]: 20.2%
- Activity [18]: 41.3%
- Activity [19]: 50.9%
- Activity [20]: 44.9%
- Activity [21]: 50.6%
- Activity [22]: 46.9%
- Activity [23]: 44.6%
- Activity [24]: 45.5%
- Activity [25]: 28.3%
- Activity [26]: 45.1%
- Activity [27]: 38.1%
- Activity [28]: 16%
- Activity [29]: 15%
- Activity [30]: 30.2%
- Activity [31]: 49%
- Activity [32]: 38.1%
- Activity [33]: 38.8%
- Activity [34]: 40.6%
- Activity [35]: 52.6%
- Activity [36]: 43.4%
SMILES: NCC1O[C@H](O[C@H]2[C@@H](O)[C@H](O[C@@H]3[C@@H](O)[C@H](N)C[C@H](N)[C@H]3O[C@H]3O[C@H](CN)[C@@H](O)[C@H](O)[C@H]3N)O[C@@H]2CSCCNC(=O)CCSCC(=O)Nc2ccc(-c3c4ccc(=O)cc-4oc4cc(O)ccc34)c(C(=O)O)c2)[C@H](N)[C@@H](O)[C@@H]1O (stereo partly specified)
